From paper PMC6341489 (2016)

Test system: 2-AP-labeled miR-21-hp RNA (RNA, miRNA, 2-aminopurine at 15 (replaces A15)) GGGUUGACUGUUGAAUCUCAUGGCAACCC
Test: 2-aminopurine fluorescence titration
Settings: 137 mM NaCl, 3 mM KCl; apparent; PBS pH 7.4, 10% DMSO, RT, 2 μM RNA

Kd: 3.2 ± 0.7 µM
SMILES: OC(CNc1ccccc1)Cn1c2ccc(Br)cc2c2cc(Br)ccc21 (stereo not shown)
